The term Km denotes the substrate concentration at which the rate is half of its maximum.

Consider one compound from article PMC6921030, “Biochemical Characterization of a Novel α/β-Hydrolase/FSH from the White Shrimp Litopenaeus vannamei” (Biomolecules, 2019).

The target in the assay is T1, LvFSH (LvFHS) (Penaeus vannamei, UniProt A0A3R7MXL5).
T1 construct: gene C7M84_009540; synthetic codon-optimised gene of LvFSH coding region, N-terminal 10-His tag (cutting not mentioned), pJexpress414, E. coli BL21DE3-SI; about 27 kDa on SDS-PAGE, about 58 kDa by gel filtration (probable dimer); catalytic triad Ser111/Asp169/His196 proposed; C-terminal motif KMRELC 214-219
T1 sequence (A0A3R7MXL5 entry or part of it): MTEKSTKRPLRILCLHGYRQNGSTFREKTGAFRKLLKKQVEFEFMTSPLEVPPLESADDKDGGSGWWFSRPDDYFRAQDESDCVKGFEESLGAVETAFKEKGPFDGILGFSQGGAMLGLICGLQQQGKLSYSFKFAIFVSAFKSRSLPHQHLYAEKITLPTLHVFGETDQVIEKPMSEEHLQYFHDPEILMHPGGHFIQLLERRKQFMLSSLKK
The assay is described as follows: spectrophotometric p-nitrophenol release at […] nm, non-linear Michaelis-Menten fit. Type of assay: biochemical. The settings on record: 50 mM Tris-HCl pH 8.0, 37 °C, 0.2% (v/v) Triton X-100, 50 mM NaCl; substrate 0.05-2 mM in ethanol.

`CC(=O)Oc1ccc([N+](=O)[O-])cc1` [p-nitrophenyl acetate]: the Km amounted to 1000 ± 40 µM.
